Results as given in patent US20220204497A1, “NOVEL COMPOUND HAVING ANTICANCER ACTIVITY, AND METHOD FOR PRODUCING SAME” (MEDICINAL BIOCONVERGENCE RESEARCH CENTER, priority 2019, published 2022).

Tests used:
[1] = system: A549 cells; experiment: Cell viability by MTT method in A549 cells; assay type: cell-based; parameters: concentration or dose not given beside the values; conditions: 72 hours treatment
[2] = target: T1, AIMP2-DX2 (Homo sapiens, UniProt Q13155); experiment: DX2-nanoluciferase assay (DX2 expression change) in transfected A549 cells; conditions: A549, 4 h; for inhibition at 40 µM: read-out: DX-Nanoluciferase activity (40 μM), 40 μM, 4 hours treatment, A549 cells transfected with nanoluciferase-DX2, inhibitory effect on AIMP2-DX2 expression; for inhibition at 10 µM: read-out: DX-Nanoluciferase activity (10 μM), 10 μM, 4 hours treatment, A549 cells transfected with nanoluciferase-DX2
T1 sequence (Q13155 1-251 isoform Q13155-2): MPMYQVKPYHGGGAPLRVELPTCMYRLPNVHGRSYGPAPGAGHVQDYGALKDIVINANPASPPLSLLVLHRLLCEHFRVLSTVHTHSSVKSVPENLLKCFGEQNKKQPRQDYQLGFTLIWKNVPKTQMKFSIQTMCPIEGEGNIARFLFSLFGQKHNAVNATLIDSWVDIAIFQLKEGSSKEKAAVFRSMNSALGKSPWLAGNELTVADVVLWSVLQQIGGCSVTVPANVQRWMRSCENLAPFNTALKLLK
Experimental: After cloning DX2 into a plasmid expressing nanoluciferase, the plasmid was transfected into A549 cells. Transfected cells were seeded 1×10^4 per well in a 96-well plate and stabilized for 12 hours. […] Cell viability was measured by the MTT method after 72 hours of treatment with each concentration of the compound in A549 cells.

`CC(C)NC(=O)[C@H](Cc1c[nH]c2ccccc12)NS(=O)(=O)c1ccc(Br)cc1` [Compound 181, (S)-2-(4-Bromophenylsulfonamido)-3-(1H-indol-3-yl)-N-isopropylpropanamide] was tested, and the “Cell Viability (% inhibition) (A549)” value [1] was 98.95 ± 0.74% and the inhibition at 40 µM [2] was 44.1 ± 2.97%.

For `CC(C)C[C@H](NS(=O)(=O)c1ccc2ccccc2c1)C(=O)Nc1ccc(N2CCOCC2)cc1` [Compound 26, (S)-4-methyl-N-(4-morpholinophenyl)-2-(naphthalene-2-sulfonamido)pentanamide], the “Cell Viability (% inhibition) (A549)” value [1] was 5.95 ± 2.15% and the inhibition at 40 µM [2] was 52.7 ± 10.5%.

For `Cc1ccc(S(=O)(=O)N[C@@H](CC(C)C)C(=O)N2CCS(=O)(=O)CC2)cc1` [Compound 5, (S)—N-(1-(1,1-dioxidothiomorpholino)-4-methyl-1-oxopentan-2-yl)-4-methylbenzenesulfonamide], the “Cell Viability (% inhibition) (A549)” value [1] was 15.98% and the inhibition at 40 µM [2] was 47.4 ± 7.4%.

`COc1ccc(-c2cc(NC(=O)[C@H](CC(C)C)NS(=O)(=O)c3ccc(C)cc3)on2)cc1` [Compound 89, (S)—N-(3-(4-methoxyphenyl)isoxazol-5-yl)-4-methyl-2-(4-methylphenylsulfonamido)pentanamide] was tested, and the “Cell Viability (% inhibition) (A549)” value [1] was 98.73 ± 0.92% and the inhibition at 40 µM [2] was 47.5 ± 13.3%.

In the case of `COc1ccc(N2CCN(C(=O)[C@H](Cc3c[nH]c4ccccc34)NS(=O)(=O)c3ccc(Br)cc3)CC2)cc1` [Compound 202, (S)—N-(3-(1H-indol-3-yl)-1-(4-(4-methoxyphenyl)piperazin-1-yl)-1-oxopropan-2-yl)-4-bromobenzenesulfonamide], the “Cell Viability (% inhibition) (A549)” value [1] is reported as 78.44 ± 2.44% and the inhibition at 40 µM [2] is reported as 38.6 ± 11.3%.

In the case of `O=C(NCCc1ccccc1)[C@H](Cc1c[nH]c2ccccc12)NS(=O)(=O)c1ccc(Br)cc1` [Compound 196, (S)-2-(4-Bromophenylsulfonamido)-3-(1H-indol-3-yl)-N-phenethylpropanamide], the “Cell Viability (% inhibition) (A549)” value [1] is reported as 79.27 ± 0.55% and the inhibition at 10 µM [2] is reported as 28.2 ± 2.11%.

In the case of `CC[C@H](C)[C@H](NS(=O)(=O)c1ccc(C)cc1)C(=O)Nc1ccc(N2CCOCC2)cc1` [Compound 43, (2S,3S)-3-methyl-2-(4-methylphenylsulfonamido)-N-(4-morpholinophenyl)pentanamide], the “Cell Viability (% inhibition) (A549)” value [1] is reported as 17.08 ± 7.96% and the inhibition at 40 µM [2] is reported as 42.9 ± 3.9%.

With `Cc1ccc(S(=O)(=O)N[C@@H](Cc2c[nH]c3ccccc23)C(=O)N2CCOCC2)cc1` [Compound 70, (S)—N-(3-(1H-indol-3-yl)-1-morpholino-1-oxopropan-2-yl)-4-methylbenzenesulfonamide] the “Cell Viability (% inhibition) (A549)” value [1] was 23.61 ± 2.18% and the inhibition at 40 µM [2] was 59.7 ± 3.49%.

For `O=C(Nc1ccc(N2CCOCC2)cc1)[C@H](Cc1c[nH]c2ccccc12)NS(=O)(=O)c1ccc(F)cc1` [Compound 67, (S)-2-(4-Fluorophenylsulfonamido)-3-(1H-indol-3-yl)-N-(4-morpholinophenyl)propanamide], the “Cell Viability (% inhibition) (A549)” value [1] was 69.20 ± 2.10% and the inhibition at 40 µM [2] was 44.5 ± 14.2%.

In the case of `CC(C)C[C@H](NS(=O)(=O)c1ccc(OCc2ccccc2)cc1)C(=O)N1CCOCCOCCOCC1` [Compound 34, (S)-4-(benzyloxy)-N-(4-methyl-1-oxo-1-(1,4,7-trioxa-10-azacyclododecan-10-yl)pentan-2-yl)benzenesulfonamide], the “Cell Viability (% inhibition) (A549)” value [1] is reported as 38.82 ± 5.12% and the inhibition at 40 µM [2] is reported as 34.4 ± 0.91%.

For `Cc1ccc(S(=O)(=O)N[C@@H](Cc2c[nH]c3ccccc23)C(=O)NCCc2ccc(Cl)cc2)cc1` [Compound 225, (S)—N-(4-chlorophenethyl)-3-(1H-indol-3-yl)-2-(4-methylphenylsulfonamido)propanamide], the “Cell Viability (% inhibition) (A549)” value [1] was 95.8 ± 0.48% and the inhibition at 10 µM [2] was 88.7 ± 6.08%.

For `Cc1ccc(S(=O)(=O)N[C@@H](CC(C)C)C(=O)Nc2ccc(N3CCOCC3)c(F)c2)cc1` [Compound 14, (S)—N-(3-fluoro-4-morpholinophenyl)-4-methyl-2-(4-methylphenylsulfonamido)pentanamide], the “Cell Viability (% inhibition) (A549)” value [1] was 29.87 ± 2.48% and the inhibition at 40 µM [2] was 55.6 ± 1.06%.

`Cc1ccc(S(=O)(=O)N[C@@H](Cc2c[nH]c3ccccc23)C(=O)NCc2ccco2)cc1` [Compound 178, (S)—N-(furan-2-ylmethyl)-3-(1H-indol-3-yl)-2-(4-methylphenylsulfonamido)propanamide] showed an inhibition at 40 µM [2] of 1.52 ± 5.08%.

`O=C(NCc1ccco1)[C@H](Cc1c[nH]c2ccccc12)NS(=O)(=O)c1ccc(Br)cc1` [Compound 179, (S)-2-(4-Bromophenylsulfonamido)-N-(furan-2-ylmethyl)-3-(1H-indol-3-yl)propanamide] gave an inhibition at 40 µM [2] of -4.97 ± 1.37%.

In the case of `COc1ccc(S(=O)(=O)N[C@@H](Cc2c[nH]c3ccccc23)C(=O)Nc2ccc(N3CCOCC3)cc2)cc1` [Compound 80, (S)-3-(1H-indol-3-yl)-2-(4-methoxyphenylsulfonamido)-N-(4-morpholinophenyl)propanamide], the “Cell Viability (% inhibition) (A549)” value [1] is reported as 38.64 ± 1.03% and the inhibition at 40 µM [2] is reported as 44.9 ± 13.3%.

In the case of `Cc1ccc(S(=O)(=O)N[C@@H](Cc2c[nH]c3ccccc23)C(=O)NC(C)C)cc1` [Compound 180, (S)-3-(1H-indol-3-yl)-N-isopropyl-2-(4-methylphenylsulfonamido)propanamide], the “Cell Viability (% inhibition) (A549)” value [1] is reported as 28.20 ± 5.02% and the inhibition at 40 µM [2] is reported as 4.04 ± 4.08%.

For `COc1ccc(-c2cc(NC(=O)[C@H](CC(C)C)NS(=O)(=O)c3ccc(C)cc3)no2)cc1` [Compound 88, (S)—N-(5-(4-methoxyphenyl)isoxazol-3-yl)-4-methyl-2-(4-methylphenylsulfonamido)pentanamide], the “Cell Viability (% inhibition) (A549)” value [1] was 46.96 ± 4.60% and the inhibition at 40 µM [2] was 57 ± 8.83%.

In the case of `O=C(Nc1ccc(N2CCOCC2)cc1)[C@H](Cc1c[nH]c2ccccc12)NS(=O)(=O)c1ccc([N+](=O)[O-])cc1` [Compound 78, (S)-3-(1H-indol-3-yl)-N-(4-morpholinophenyl)-2-(4-nitrophenylsulfonamido)propanamide], the “Cell Viability (% inhibition) (A549)” value [1] is reported as 67.08 ± 1.45% and the inhibition at 40 µM [2] is reported as 44.5 ± 12.7%.

With `O=C(Nc1ccc(N2CCOCC2)cc1)[C@H](Cc1c[nH]c2ccccc12)NS(=O)(=O)c1ccc(O)cc1` [Compound 158, (S)-2-(4-Hydroxyphenylsulfonamido)-3-(1H-indol-3-yl)-N-(4-morpholinophenyl)propanamide] the “Cell Viability (% inhibition) (A549)” value [1] was 24.87 ± ? .01% and the inhibition at 10 µM [2] was -7.04 ± 4.87%.

`COc1cc(N2CCN(C(C)=O)CC2)ccc1NC(=O)[C@H](Cc1c[nH]c2ccccc12)NS(=O)(=O)c1ccc(C)cc1` [Compound 161, (S)—N-(4-(4-Acetylpiperazin-1-yl)-2-methoxyphenyl)-3-(1H-indol-3-yl)-2-(4-methylphenylsulfonamido)propanamide] was tested, and the inhibition at 10 µM [2] was 25.2 ± 9.86%.

`CC(=O)Nc1cccc(S(=O)(=O)N[C@@H](CC(C)C)C(=O)N2CCOCC2)c1` [Compound 153, (S)—N-(3-(N-(4-methyl-1-morpholino-1-oxopentan-2-yl)sulfamoyl)phenyl)acetamide] showed an inhibition at 40 µM [2] of 26.9 ± 6.7%.

For `O=C(Nc1nc(-c2ccc([N+](=O)[O-])cc2)cs1)[C@H](Cc1c[nH]c2ccccc12)NS(=O)(=O)c1ccc(Br)cc1` [Compound 190, (S)-2-(4-Bromophenylsulfonamido)-3-(1H-indol-3-yl)-N-(4-(4-nitrophenyl)thiazol-2-yl)propanamide], the inhibition at 10 µM [2] was 29.6 ± 14%.

Compound `CCCCCCCCCC(=O)NNC(=O)[C@H](Cc1c[nH]c2ccccc12)NS(=O)(=O)c1ccc(Br)cc1` [Compound 195, (S)-4-Bromo-N-(1-(2-decanoylhydrazinyl)-3-(1H-indol-3-yl)-1-oxopropan-2-yl)benzenesulfonamide] has an inhibition at 10 µM [2] of 45.4 ± 5.61% and an inhibition at 40 µM [2] of 45.4 ± 5.61%.

Compound `CC(C)C[C@H](NC(=O)Nc1ccccc1)C(=O)OCc1ccccc1` [Compound 154, (S)-Benzyl 4-methyl-2-(3-phenylureido)pentanoate] has an inhibition at 40 µM [2] of 40.5 ± 7.7%.

With `Cc1ccc(S(=O)(=O)N[C@@H](CC(=O)O)C(=O)Nc2ccc(N3CCOCC3)cc2)cc1` [Compound 145, (S)-3-(4-Methylphenylsulfonamido)-4-(4-morpholinophenylamino)-4-oxobutanoic acid] the inhibition at 40 µM [2] was -11.1 ± 19.2%.

`Cc1ccc(S(=O)(=O)N[C@@H](Cc2c[nH]c3ccccc23)C(=O)NCc2cccs2)cc1` [Compound 150, (S)-3-(1H-indol-3-yl)-2-(4-methylphenylsulfonamido)-N-(thiophen-2-ylmethyl)propanamide] gave an inhibition at 40 µM [2] of -17.7 ± 16.6%.

`Cc1ccc(S(=O)(=O)N[C@H](CC(C)C)C(=O)N2CCOCC2)cc1` [Compound 2, (R)-4-methyl-N-(4-methyl-1-morpholino-1-oxopentan-2-yl)benzenesulfonamide] was tested, and the “Cell Viability (% inhibition) (A549)” value [1] was 29.46%.

For `O=C([C@H](Cc1c[nH]c2ccccc12)NS(=O)(=O)c1ccc(Br)cc1)n1ccc(-c2ccccc2)n1` [Compound 185, (S)—N-(3-(1H-indol-3-yl)-1-oxo-1-(3-phenyl-1H-pyrazol-1-yl)propan-2-yl)-4-bromobenzenesulfonamide], the “Cell Viability (% inhibition) (A549)” value [1] was 13.09 ± 18.13%.

With `Cc1ccc(S(=O)(=O)N[C@@H](CCC(=O)Nc2ccc(C(C)(C)C)cc2)C(=O)Nc2ccc(N3CCOCC3)cc2)cc1` [Compound 175, (S)—N^5-(4-tert-butylphenyl)-2-(4-methylphenylsulfonamido)-N^1-(4-morpholinophenyl)pentanediamide] the “Cell Viability (% inhibition) (A549)” value [1] was 28.4 ± 4.82%.

For `N#Cc1ccc(S(=O)(=O)N[C@@H](Cc2c[nH]c3ccccc23)C(=O)Nc2ccc(N3CCOCC3)cc2)cc1` [Compound 135, (S)-2-(4-Cyanophenylsulfonamido)-3-(1H-indol-3-yl)-N-(4-morpholinophenyl)propanamide], the “Cell Viability (% inhibition) (A549)” value [1] was 55.02 ± 1.06%.
